Target: T1, CDK2 (Homo sapiens, UniProt P24941)
T1 construct: made in house; host or cells: Sf21 insect cells (stated for the CDK2/Cyclin E option; by analogy to CDK4/Cyclin D1 baculovirus co-infection)
Assay: CDK2 inhibition assay (in vitro kinase SPA, by analogy to the CDK4 assay)
Format: biochemical
Settings: read-out: CDK2 inhibitory activity IC50
Method: The compounds were tested in an in vitro kinase assay in 96 well format using Scintillation Proximity Assay (SPA—obtained from Amersham) for measuring incorporation of [γ-33-P]-Adenosine Triphosphate into a test substrate (GST-Retinoblastoma). In each well was placed the compound to be tested (diluted in DMSO and water to correct concentrations) and in control wells either p16 as an inhibitor control or DMSO as a positive control.
Approximately 0.5 μl of CDK4/Cyclin D1 partially-purified enzyme (amount dependent on enzyme activity) diluted in 25 μl incubation buffer was added to each well then 20 μl of GST-Rb/ATP/ATP33 mixture (containing 0.5 μg GST-Rb and 0.2 μM ATP and 0.14 μCi [γ-33-P]-Adenosine Triphosphate), and the resulting mixture shaken gently, then incubated at room temperature for 60 minutes.
To each well was then added 150 μL stop solution containing (0.8 mg/well of Protein A-PVT SPA bead (Amersham)), 20 pM/well of Anti-Glutathione Transferase, Rabbit IgG (obtained from Molecular Probes), 61 mM EDTA and 50 mM HEPES pH 7.5 containing 0.05% sodium azide.
The plates were sealed with Topseal-S plate sealers, left for two hours then spun at 2500 rpm, 1124×g., for 5 minutes. The plates were read on a Topcount for 30 seconds per well. […]

IC50: 347 nM
Structure (SMILES): N#Cc1ccccc1Nc1nc(Nc2ccc(S(N)(=O)=O)cc2)ncc1Cl [Example 23, 2-(4-Sulphamoylanilino)-4-(2-cyanoanilino)-5-chloropyrimidine]

Source: patent publication US7153964B2, “Pyrimidine compounds” (AstraZeneca AB, priority 2000, dated 2006)
